Results published in patent US20250186405A1, “Compound For Use In Treating Narcolepsy” (Alkermes, Inc., priority 2023, published 2025).
“And” between values parts separate entries of the source, which are not always exact repeats. Equal entries are not always repeated.

How the values were obtained:
[1] = system: subjects with narcolepsy type-2 (NT2); experiment: Part 5 NT2: Maintenance of Wakefulness Test (MWT) sleep latency; format: in vivo, human; settings: for Change from Day −1 in Average Sleep Latency on the MWT, LSM / Change from Day −1 in Average Sleep Latency on the MWT, LSM difference vs placebo: NT2, N = 9; for Average Sleep Latency on the MWT, Change from Day −1, Mean (SD) / Average Sleep Latency on the MWT, Change from Day −1, Median / Average Sleep Latency on the MWT, Dosing Day, Mean (SD) / Average Sleep Latency on the MWT, Dosing Day, Median: NT2, n = 9; for LS mean difference vs placebo in change from baseline, average MWT sleep latency: 2-8 hours post-dose
Method: On Day −1, approximately 25 hours prior to study drug administration (on Day 1), baseline assessments for Maintenance of Wakefulness Test (MWT) began and were collected in a series of trials over approximately 10 hours.
At specified time points (Parts 5 and 6), MWT assessments were performed and took up to 40 minutes to complete. During the MWT trials, subjects were seated in a bed or reclining chair in a darkened room with their back and head supported such that their neck is not uncomfortably flexed or extended. Subjects were instructed to sit still and remain awake for as long as possible during each 40-minute trial. If the subject fell asleep during a trial, they were awakened, and the trial was terminated. […] Upon completion of the trial, the subject returned to a normal environment/ambiance and remained awake (and were awakened if they fall asleep) until the next trial.
Once Parts 5 and 6 were completed, the EEG data recorded during the MWT, as well as the technician notes, were transferred to the EEG vendor for further analysis. Technician notes were also maintained for transfer to Sponsor at the end of the study. A precise assessment of sleep latency was conducted by an experienced sleep scorer from the EEG vendor, and spectral analysis was performed on the EEG data recorded during MWT to assess absolute and relative powers in standard frequency bands (i.e., qEEG). All raw data and analysis results were transferred to the Sponsor.
For the changes from baseline in average sleep latency across the first 4 sessions of the MWT, descriptive statistics were provided by dose level. Mixed model with repeated measure (MMRM) for the 4-period crossover design were conducted with the change from baseline as a dependent variable, and the dose level and the period as fixed factors. The differences in the least square means between each Compound A dose level and the placebo (each Compound A dose level—the placebo), and the 2-sided CIs were provided.
Evaluation of Compound A effects on average sleep latency across 4 timepoints of MWT (2-, 4-, 6-, and 8-hours post-dose) has been conducted at each of the crossover periods (Days 1, 3, 5 and 7), testing placebo, and active dose levels of 5, 12, and 25 mg in the patients with NT2 compared to placebo. At pre-dose baseline on Day −1, MWT assessment was taken at similar times (2-, 4-, 6-, and 8-hours) as planned on dosing days assuming a dosing time of approximately 9 AM. Mean (SD) of baseline MWT average across the 4 time points on Day −1 was 14.31 (11.201), with high variability observed for NT2 subjects.

[2] = system: subjects with idiopathic hypersomnia (IH); experiment: Part 6 IH: Karolinska Sleepiness Scale (KSS); format: in vivo, human; settings: for Change From Day −1 in Average Karolinska Sleepiness Scale, LSM difference vs placebo: N = 8; for Change From Day −1 in Average Karolinska Sleepiness Scale, LSM: N = 8, average of 1, 2, 4, 6, 8 h
Method: At points within the study, subjects were asked to rate their sleepiness using the KSS with regard to the level of sleepiness they experienced over the past 5 minutes.
The KSS is a validated, self-reported outcome measure of subjective sleepiness. The KSS was developed as a one-dimensional measure of sleepiness and has been validated against assessments like EEG and electrooculography activity (Akerstedt and Gillberg 1990). The KSS is comprised of a single question that asks the subject to rate their sleepiness in the immediately preceding 5 minutes on a 9-point scale where 1=extremely alert and 9=very sleepy, great effort to keep awake, fighting sleep. The KSS takes approximately 10 to 15 seconds to complete. Thus, the KSS is well suited for repeated measurement at short intervals as it assesses situational sleepiness within a short timeframe.
The PD parameters in the POC evaluation (e.g., changes from baseline in sleep latency on MWT, number of errors on SART and level of sleepiness on KSS at matched time points) were summarized using descriptive statistics for each time point by dose level.

CS(=O)(=O)N[C@H]1CCCN2C(=O)COc3ccccc3C3CCC(CC3)OCC12 (stereo partly drawn) [Compound A, N-[(4S,4aR,7α,10α)-1,2,3,4,4a,5,7,8,9,10,16,17-dodecahydro-17-oxo-7,10-ethanopyrido[1,2-d][1,7,4]benzodioxaazacyclotridecin-4-yl]methanesulfonamide]
Change from Day −1 in Average Sleep Latency on the MWT, LSM ([1]; 5 mg): 11.68 min
Change from Day −1 in Average Sleep Latency on the MWT, LSM difference vs placebo ([1]; 5 mg): 11.60 min
Average Sleep Latency on the MWT, Change from Day −1, Mean (SD) ([1]; 5 mg): 11.65 (14.736) minutes
Average Sleep Latency on the MWT, Change from Day −1, Median ([1]; 5 mg): 8.50 min
Average Sleep Latency on the MWT, Dosing Day, Mean (SD) ([1]; 5 mg): 25.95 (12.409) minutes
Average Sleep Latency on the MWT, Dosing Day, Median ([1]; 5 mg): 26.63 min
Change from Day −1 in Average Sleep Latency on the MWT, LSM ([1]; 12 mg): 18.63 min
Change from Day −1 in Average Sleep Latency on the MWT, LSM difference vs placebo ([1]; 12 mg): 18.55 min
Average Sleep Latency on the MWT, Change from Day −1, Mean (SD) ([1]; 12 mg): 18.63 (10.892) minutes
Average Sleep Latency on the MWT, Change from Day −1, Median ([1]; 12 mg): 19.50 min
Average Sleep Latency on the MWT, Dosing Day, Mean (SD) ([1]; 12 mg): 32.93 (9.836) minutes
Average Sleep Latency on the MWT, Dosing Day, Median ([1]; 12 mg): 40.00 min
Change from Day −1 in Average Sleep Latency on the MWT, LSM ([1]; 25 mg): 21.04 min
Change from Day −1 in Average Sleep Latency on the MWT, LSM difference vs placebo ([1]; 25 mg): 20.96 min
Average Sleep Latency on the MWT, Change from Day −1, Mean (SD) ([1]; 25 mg): 21.14 (12.126) minutes
Average Sleep Latency on the MWT, Change from Day −1, Median ([1]; 25 mg): 17.25 min
Average Sleep Latency on the MWT, Dosing Day, Mean (SD) ([1]; 25 mg): 35.44 (7.720) minutes
Average Sleep Latency on the MWT, Dosing Day, Median ([1]; 25 mg): 40.00 min
LS mean difference vs placebo in change from baseline, average MWT sleep latency ([1]; NT2, 5 mg): 11.60 min and 11.6 min and 12 min
observed mean MWT score over 8-hour period post-dose ([1]; NT2, 12 mg): ≥ 30 min
LS mean difference vs placebo in change from baseline, average MWT sleep latency ([1]; NT2, 12 mg): 18.55 min and 18.6 min and 19 min
observed mean MWT score over 8-hour period post-dose ([1]; NT2, 25 mg): ≥ 30 min
LS mean difference vs placebo in change from baseline, average MWT sleep latency ([1]; NT2, 25 mg): 20.96 min and 21.0 min and 21 min
LS mean difference vs placebo in change from Day −1, average KSS ([2]; 5 mg): −1.08
Change From Day −1 in Average Karolinska Sleepiness Scale, LSM difference vs placebo ([2]; 5 mg): −1.08
Change From Day −1 in Average Karolinska Sleepiness Scale, LSM ([2]; 5 mg): −1.60
LS mean difference vs placebo in change from Day −1, average KSS ([2]; 12 mg): −0.80
Change From Day −1 in Average Karolinska Sleepiness Scale, LSM difference vs placebo ([2]; 12 mg): −0.80
Change From Day −1 in Average Karolinska Sleepiness Scale, LSM ([2]; 12 mg): −1.33
LS mean difference vs placebo in change from Day −1, average KSS ([2]; 25 mg): −2.18
Change From Day −1 in Average Karolinska Sleepiness Scale, LSM difference vs placebo ([2]; 25 mg): −2.18
Change From Day −1 in Average Karolinska Sleepiness Scale, LSM ([2]; 25 mg): −2.70
